Consider 33 compounds from US9326986B2, “Quinazolinone, quinolone and related analogs as sirtuin modulators” (GLAXOSMITHKLINE LLC, priority 2008, dated 2016).

This assay concerns the target T1, SIRT1 (Homo sapiens, UniProt Q96EB6).
T1 sequence (Q96EB6 1-747): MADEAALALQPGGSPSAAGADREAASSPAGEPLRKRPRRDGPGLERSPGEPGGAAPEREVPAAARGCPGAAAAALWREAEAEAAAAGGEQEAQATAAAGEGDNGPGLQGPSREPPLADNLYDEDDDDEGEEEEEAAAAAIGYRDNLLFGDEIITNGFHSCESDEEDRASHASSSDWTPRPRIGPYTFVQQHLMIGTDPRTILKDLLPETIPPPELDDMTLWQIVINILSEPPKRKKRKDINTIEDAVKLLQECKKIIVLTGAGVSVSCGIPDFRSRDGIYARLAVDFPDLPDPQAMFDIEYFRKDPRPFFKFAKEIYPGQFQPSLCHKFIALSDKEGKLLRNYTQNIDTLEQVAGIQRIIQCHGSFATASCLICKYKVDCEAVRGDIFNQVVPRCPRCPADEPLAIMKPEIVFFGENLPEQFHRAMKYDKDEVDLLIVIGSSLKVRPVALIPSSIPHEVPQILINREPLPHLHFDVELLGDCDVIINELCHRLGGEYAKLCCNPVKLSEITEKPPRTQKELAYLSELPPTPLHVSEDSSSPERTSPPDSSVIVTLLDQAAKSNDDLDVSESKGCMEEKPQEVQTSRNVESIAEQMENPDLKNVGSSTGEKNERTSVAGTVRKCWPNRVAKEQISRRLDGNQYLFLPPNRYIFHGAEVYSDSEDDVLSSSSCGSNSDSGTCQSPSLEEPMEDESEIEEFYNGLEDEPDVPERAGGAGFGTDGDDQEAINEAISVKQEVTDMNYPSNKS
Kind of assay: Mass spectrometry based assay to identify modulators of SIRT1 activity (deacetylation of p53-based acetylated peptide). Type of assay: biochemical. The conditions noted are these: 10 nM SIRT1, 0.5 μM peptide substrate, 120 μM βNAD+, 25 minutes at 25° C.; for EC1.5 μM: SIRT1 activation.

`Cn1c(-c2cccnc2)nc2c(NC(=O)c3cnccn3)cccc2c1=O` [Compound 278]: the “% Fold Act. (percent maximum fold activation)” value was “B (Fold Activation<200%)” and the “EC1.5 μM” value is reported as “B (EC1.5 1-25 μM)”.
On to `Cn1c(-c2cccc(C(F)(F)F)c2)nc2c(C(=O)Nc3ccnc(CN4CCOCC4)n3)cccc2c1=O` [Compound 307], for which the “% Fold Act. (percent maximum fold activation)” value is reported as “A (Fold activation>200%)” and the “EC1.5 μM” value is on record as “B (EC1.5 1-25 μM)”.
Take `Cn1c(-c2cccc(C(F)(F)F)c2)nc2c(C(=O)Nc3ccc(CN4CC[C@H](F)C4)cn3)cccc2c1=O` [Compound 346]: the “% Fold Act. (percent maximum fold activation)” value was “A (Fold activation>200%)” and the “EC1.5 μM” value is “A (EC1.5<1.0 μM)”.
As to `Cc1cc(NC(=O)c2cccc3c(=O)n(C)c(-c4cccc(C(F)(F)F)c4)nc23)sn1` [Compound 296], the “% Fold Act. (percent maximum fold activation)” value was “B (Fold Activation<200%)” and the “EC1.5 μM” value is “B (EC1.5 1-25 μM)”.
The matching figures for `Cn1c(-c2cccc(C(F)(F)F)c2)nc2c(C(=O)Nc3ccncn3)cccc2c1=O` [Compound 303]: “A (Fold activation>200%)” and “B (EC1.5 1-25 μM)”.
Take `O=C(Nc1nccs1)c1cccc2c(=O)cc(-c3ccccc3OC(F)F)[nH]c12` [Compound 436]: the “% Fold Act. (percent maximum fold activation)” value was “A (Fold activation>200%)” and the “EC1.5 μM” value is “A (EC1.5<1.0 μM)”.
Regarding `Cn1c(-c2ccc(OC(F)(F)F)cc2)nc2c(NC(=O)c3cnccn3)cccc2c1=O` [Compound 252], the “% Fold Act. (percent maximum fold activation)” value is “B (Fold Activation<200%)” and the “EC1.5 μM” value is on record as “C (EC1.5>25 μM)”.
Turning to `O=C(Nc1cccnc1)c1cccc2c(=O)cc(-c3ccccc3C(F)(F)F)[nH]c12` [Compound 437], the “% Fold Act. (percent maximum fold activation)” value was “A (Fold activation>200%)” and the “EC1.5 μM” value was “A (EC1.5<1.0 μM)”.
`Cn1c(-c2cccc(C(F)(F)F)c2)nc2c(C(=O)Nc3cccc(OCC(O)CO)c3)cccc2c1=O` (stereo not drawn) [Compound 286]: the “% Fold Act. (percent maximum fold activation)” value is reported as “A (Fold activation>200%)” and the “EC1.5 μM” value was “A (EC1.5<1.0 μM)”.
Regarding `Cn1c(-c2cccc(C(F)(F)F)c2)nc2c(C(=O)Nc3ccnc(CN4CCNCC4)n3)cccc2c1=O` [Compound 347], the “% Fold Act. (percent maximum fold activation)” value is given as “A (Fold activation>200%)” and the “EC1.5 μM” value is “A (EC1.5<1.0 μM)”.
In the case of `Cn1ccc(-c2nc3c(NC(=O)c4cnccn4)cccc3c(=O)n2C)n1` [Compound 290], the “% Fold Act. (percent maximum fold activation)” value is listed as “B (Fold Activation<200%)” and the “EC1.5 μM” value is “C (EC1.5>25 μM)”.
For the compound `Cn1ccnc1C(=O)Nc1cccc2c(=O)n(C)c(-c3cccc(C(F)(F)F)c3)nc12` [Compound 238], the “% Fold Act. (percent maximum fold activation)” value was “A (Fold activation>200%)” and the “EC1.5 μM” value is reported as “B (EC1.5 1-25 μM)”.
With `O=C(Nc1cccc2c(=O)cc(-c3ccccc3C(F)(F)F)[nH]c12)c1cscn1` [Compound 444], the “% Fold Act. (percent maximum fold activation)” value is on record as “A (Fold activation>200%)” and the “EC1.5 μM” value was “A (EC1.5<1.0 μM)”.
Take `Cn1c(-c2ccccc2OC(F)(F)F)nc2c(C(=O)Nc3ccccn3)cccc2c1=O` [Compound 213]: the “% Fold Act. (percent maximum fold activation)” value was “A (Fold activation>200%)” and the “EC1.5 μM” value is “B (EC1.5 1-25 μM)”.
On to `Cn1c(-c2ccc(S(C)(=O)=O)cc2)nc2c(C(=O)Nc3ccccn3)cccc2c1=O` [Compound 215], for which the “% Fold Act. (percent maximum fold activation)” value is given as “B (Fold Activation<200%)” and the “EC1.5 μM” value is on record as “C (EC1.5>25 μM)”.
The matching figures for `O=C(Nc1cccnc1)c1cccc2c(=O)cc(-c3ccccc3C(F)F)[nH]c12` [Compound 438]: “A (Fold activation>200%)” and “B (EC1.5 1-25 μM)”.
`Cn1c(-c2cccc(C(F)(F)F)c2)nc2c(C(=O)Nc3ccnc(OCC(O)CO)n3)cccc2c1=O` (stereo not drawn) [Compound 355]: the “% Fold Act. (percent maximum fold activation)” value is listed as “A (Fold activation>200%)” and the “EC1.5 μM” value is listed as “A (EC1.5<1.0 μM)”.
In the case of `O=C(Nc1ccccn1)c1cccc2c(=O)[nH]c(-c3ccccc3C(F)(F)F)nc12` [Compound 321], the “% Fold Act. (percent maximum fold activation)” value is recorded as “A (Fold activation>200%)” and the “EC1.5 μM” value is on record as “B (EC1.5 1-25 μM)”.
Consider `Cn1c(-c2cccc(C(F)(F)F)c2)nc2c(C(=O)Nc3nc(CN4CCOCC4)cs3)cccc2c1=O` [Compound 309], for which the “% Fold Act. (percent maximum fold activation)” value is “A (Fold activation>200%)” and the “EC1.5 μM” value is “A (EC1.5<1.0 μM)”.
As to `O=C(Nc1ccccn1)c1cccc2c(=O)[nH]c(-c3ccccc3C(F)F)nc12` [Compound 324], the “% Fold Act. (percent maximum fold activation)” value was “A (Fold activation>200%)” and the “EC1.5 μM” value is “A (EC1.5<1.0 μM)”.
As to `Cn1c(-c2cccc(C(F)(F)F)c2)nc2c(C(=O)Nc3cccc(OC[C@H](O)CO)c3)cccc2c1=O` [Compound 363], the “% Fold Act. (percent maximum fold activation)” value is “A (Fold activation>200%)” and the “EC1.5 μM” value is given as “A (EC1.5<1.0 μM)”.
Consider `Cn1c(-c2ccccc2C(F)F)nc2c(NC(=O)c3cnccn3)cccc2c1=O` [Compound 314], for which the “% Fold Act. (percent maximum fold activation)” value is “A (Fold activation>200%)” and the “EC1.5 μM” value was “A (EC1.5<1.0 μM)”.
For `Cn1c(-c2ccccc2S(C)(=O)=O)nc2c(C(=O)Nc3ccccn3)cccc2c1=O` [Compound 221], the “% Fold Act. (percent maximum fold activation)” value is recorded as “A (Fold activation>200%)” and the “EC1.5 μM” value is “B (EC1.5 1-25 μM)”.
Regarding `O=C(Nc1cccc2c(=O)cc(-c3cccc(C(F)(F)F)c3)[nH]c12)c1ncccn1` [Compound 417], the “% Fold Act. (percent maximum fold activation)” value was “A (Fold activation>200%)” and the “EC1.5 μM” value is recorded as “A (EC1.5<1.0 μM)”.
`O=C(Nc1cccc2c(=O)cc(-c3cccc(C(F)(F)F)c3)[nH]c12)c1cscn1` [Compound 405]: the “% Fold Act. (percent maximum fold activation)” value is “A (Fold activation>200%)” and the “EC1.5 μM” value was “A (EC1.5<1.0 μM)”.
Consider `Cn1c(-c2cccc(C(F)(F)F)c2)nc2c(NC(=O)c3cscn3)cccc2c1=O` [Compound 201], for which the “% Fold Act. (percent maximum fold activation)” value is “B (Fold Activation<200%)” and the “EC1.5 μM” value was “A (EC1.5<1.0 μM)”.
`Cn1c(-c2cccc(C(F)(F)F)c2)nc2c(C(=O)Nc3nncs3)cccc2c1=O` [Compound 299]: the “% Fold Act. (percent maximum fold activation)” value is given as “A (Fold activation>200%)” and the “EC1.5 μM” value is reported as “B (EC1.5 1-25 μM)”.
On to `Cn1c(-c2cccc(C(F)(F)F)c2)nc2c(NC(=O)c3cccc(OCC(O)CO)n3)cccc2c1=O` (stereo not drawn) [Compound 335], for which the “% Fold Act. (percent maximum fold activation)” value is on record as “A (Fold activation>200%)” and the “EC1.5 μM” value is listed as “A (EC1.5<1.0 μM)”.
In the case of `Cn1cc(-c2nc3c(C(=O)Nc4ccccn4)cccc3c(=O)n2C)cn1` [Compound 263], the “% Fold Act. (percent maximum fold activation)” value was “B (Fold Activation<200%)” and the “EC1.5 μM” value is “C (EC1.5>25 μM)”.
Turning to `Cn1c(-c2cccc(C(F)(F)F)c2)nc2c(C(=O)Nc3cccc(CN4CCOCC4)c3)cccc2c1=O` [Compound 302], the “% Fold Act. (percent maximum fold activation)” value is recorded as “A (Fold activation>200%)” and the “EC1.5 μM” value is “A (EC1.5<1.0 μM)”.
In the same order, the values of `Cn1c(-c2cccc(C(F)(F)F)c2)nc2c(C(=O)Nc3ncc(CN4CCCC4)s3)cccc2c1=O` [Compound 358] are “A (Fold activation>200%)” and “B (EC1.5 1-25 μM)”.
Consider `Cn1c(-c2cccc(C(F)(F)F)c2)nc2c(NS(=O)(=O)c3cccnc3)cccc2c1=O` [Compound 361], for which the “% Fold Act. (percent maximum fold activation)” value was “B (Fold Activation<200%)” and the “EC1.5 μM” value is reported as “C (EC1.5>25 μM)”.
Regarding `Cn1c(-c2cccc(C(F)(F)F)c2)nc2c(NC(=O)c3cccc(N4CCCC4)n3)cccc2c1=O` [Compound 342], the “% Fold Act. (percent maximum fold activation)” value is “A (Fold activation>200%)” and the “EC1.5 μM” value is recorded as “A (EC1.5<1.0 μM)”.
